Measurements published in patent publication US20230203041A1, “ANTAGONISTS OF THE ADENOSINE A2A RECEPTOR” (AdoRx Therapeutics Limited, priority 2020, published 2023).
Structures can show the parent of a compound that is named as a salt.

Columns and labels:
[1] = target: T1, human Adenosine A2a receptor (Homo sapiens, UniProt P29274); assay: Adenosine receptor TR-FRET binding assay (CA200645 displacement), A2a; conditions: 100 nM CA200645, CHO cell membranes, 2 hours at room temperature
T1 construct: expressed in transfected cells; host or cells: CHO cell membranes
T1 sequence (P29274 whole entry): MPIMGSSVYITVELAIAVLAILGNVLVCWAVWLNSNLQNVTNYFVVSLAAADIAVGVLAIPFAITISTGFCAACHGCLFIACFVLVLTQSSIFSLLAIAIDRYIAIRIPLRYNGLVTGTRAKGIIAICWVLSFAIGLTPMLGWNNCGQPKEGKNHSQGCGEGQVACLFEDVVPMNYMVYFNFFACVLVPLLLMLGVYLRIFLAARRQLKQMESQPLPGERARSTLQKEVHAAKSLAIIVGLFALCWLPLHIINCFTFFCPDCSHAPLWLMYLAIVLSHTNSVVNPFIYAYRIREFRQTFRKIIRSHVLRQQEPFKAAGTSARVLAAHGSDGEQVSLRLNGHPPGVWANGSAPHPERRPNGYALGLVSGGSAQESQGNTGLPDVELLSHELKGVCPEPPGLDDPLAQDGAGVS
Procedure: (§1) All FRET binding experiments were conducted at room temperature in white 384-well plates, in assay binding buffer containing 1×LabMed (Cisbio, France), 100 μg/mL saponin, 1% DMSO and 0.02% pluronic acid. Binding of the fluorescently labelled Adenosine receptor antagonist XAC (CA200645, FRET acceptor) to terbium-labelled A1, A2a, A2b and A3 adenosine receptors (FRET donors) was detected by time-resolved FRET due to the close proximity of the donor and acceptor in a binding event. To investigate the ability of unlabelled test compounds to bind to Adenosine A1, A2a, A2b and A3 receptors, dose response curves were constructed that determined the ability of a range of concentrations to inhibit the binding of 30 nM CA200645 to the A2b receptor and 100 nM CA200645 to the A1, A2a, and A3 receptor.
(§2) Serial dilution (1:3 dilutions) of test compounds in neat DMSO and transfer of a 400 nL sample of test compound into the assay plate was carried out using the Mosquito (TTP Labtech, UK). The compound samples were incubated for 2 hours at room temperature with a fixed concentration of CA200645 defined for each receptor (see above) and CHO cell membranes containing the human Adenosine A1 (0.5 μg/well), A2a (0.3 μg/well), A2b (1 μg/well) or A3 (1 μg/well) receptor in 40 μL of assay buffer. Total and non-specific binding of CA200645 was determined in the absence and presence of 10 μM XAC, respectively. Following 2 hours incubation, the level of CA200645 binding was detected on a Pherastar FSX (BMG Labtech, Germany) using standard TR-FRET settings. The terbium donor was excited with three laser flashes at a wavelength of 337 nm, and donor and acceptor emission was detected at 620 nm and 665 nm wavelengths, respectively. FRET ratios were obtained by multiplying the acceptor/donor ratio value by 10,000. Specific binding was determined by subtracting the non-specific binding FRET ratio from the total binding FRET ratio. Compound IC50 curves were analysed using GraphPad Prism 7.0 (GraphPad, USA) and Ki affinity values were determined from the obtained IC50 values using the method of Cheng and Prusoff.

[2] = target: T2, human Adenosine A2b receptor (Homo sapiens, UniProt P29275); assay: Adenosine receptor TR-FRET binding assay (CA200645 displacement), A2b; conditions: 30 nM CA200645, CHO cell membranes, 2 hours at room temperature
T2 construct: expressed in transfected cells; host or cells: CHO cell membranes
T2 sequence (P29275 1-332): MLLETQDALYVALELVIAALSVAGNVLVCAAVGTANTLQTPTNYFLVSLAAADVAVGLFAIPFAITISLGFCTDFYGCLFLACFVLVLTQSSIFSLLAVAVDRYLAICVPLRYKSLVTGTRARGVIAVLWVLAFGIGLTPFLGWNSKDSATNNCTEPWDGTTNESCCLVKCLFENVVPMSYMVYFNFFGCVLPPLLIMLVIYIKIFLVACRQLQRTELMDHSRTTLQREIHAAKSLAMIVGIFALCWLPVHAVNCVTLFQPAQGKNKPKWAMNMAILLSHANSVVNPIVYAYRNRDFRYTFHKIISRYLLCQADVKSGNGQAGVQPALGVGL

[3] = target: T3, human Adenosine A3 receptor (Homo sapiens, UniProt P0DMS8); assay: Adenosine receptor TR-FRET binding assay (CA200645 displacement), A3
T3 sequence (P0DMS8 1-318): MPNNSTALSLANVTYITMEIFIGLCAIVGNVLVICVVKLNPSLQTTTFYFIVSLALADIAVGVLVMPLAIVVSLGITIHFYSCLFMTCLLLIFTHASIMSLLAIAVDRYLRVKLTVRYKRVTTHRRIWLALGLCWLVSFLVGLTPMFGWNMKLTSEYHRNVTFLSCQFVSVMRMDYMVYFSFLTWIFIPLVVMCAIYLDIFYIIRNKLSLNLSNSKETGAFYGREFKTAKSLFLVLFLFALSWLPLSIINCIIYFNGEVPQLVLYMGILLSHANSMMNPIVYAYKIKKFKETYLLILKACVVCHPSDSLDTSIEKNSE
Procedure: as §1, §2

[4] = target: T4, human Adenosine A1 receptor (Homo sapiens, UniProt P30542); assay: Adenosine receptor TR-FRET binding assay (CA200645 displacement), A1
T4 sequence (P30542 1-326): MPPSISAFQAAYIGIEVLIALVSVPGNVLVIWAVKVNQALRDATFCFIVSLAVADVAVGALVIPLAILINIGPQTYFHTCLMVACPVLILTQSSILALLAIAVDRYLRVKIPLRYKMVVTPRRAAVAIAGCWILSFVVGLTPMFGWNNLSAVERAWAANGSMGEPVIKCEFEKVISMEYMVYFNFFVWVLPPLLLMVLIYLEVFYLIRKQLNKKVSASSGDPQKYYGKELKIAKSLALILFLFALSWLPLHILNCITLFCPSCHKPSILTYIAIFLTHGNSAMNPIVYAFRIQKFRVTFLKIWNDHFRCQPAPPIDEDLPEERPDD

In the case of Cc1cc(-c2c(-c3cccc(C#N)c3)nn3ccc(NC(=O)N4CCNCC4)nc23)cc(Cl)n1 [Example 31, N-[3-(2-Chloro-6-methyl-4-pyridyl)-2-(3-cyanophenyl)pyrazolo[1,5-a]pyrimidin-5-yl]piperazine-1-carboxamide], the Ki [1] is reported as 10.4 nM, the Ki [2] is reported as 2 nM and the Ki [3] is reported as > 1000 nM. For the same molecule, the Ki [4] was 96 nM.
Cc1cc(-c2c(-c3cccc(C#N)c3)nn3ccc(NC(=O)N[C@H]4CCNC4)nc23)cc(Cl)n1 [Example 31.1, 1-[3-(2-Chloro-6-methyl-4-pyridyl)-2-(3-cyanophenyl)pyrazolo[1,5-a]pyrimidin-5-yl]-3-[(3S)-pyrrolidin-3-yl]urea trifluoroacetate] was tested, and the Ki [1] was 10.8 nM, the Ki [2] was 15 nM and the Ki [3] was > 1000 nM. It also gave a Ki [4] of 200 nM.
In the case of Cc1cc(-c2c(-c3cccc(C#N)c3)nn3ccc(NC(=O)NCCN)nc23)cc(Cl)n1 [Example 31.2, 1-(2-Aminoethyl)-3-[3-(2-chloro-6-methyl-4-pyridyl)-2-(3-cyanophenyl)pyrazolo[1,5-a]pyrimidin-5-yl]urea trifluoroacetate], the Ki [1] is reported as 4.6 nM, the Ki [2] is reported as 6 nM and the Ki [3] is reported as > 1000 nM. For the same molecule, the Ki [4] was 238 nM.
For Cc1cc(-c2c(-c3cccc(C#N)c3)nn3ccc(NC(=O)N[C@@H]4CCNC4)nc23)cc(Cl)n1 [Example 31.3, 1-[3-(2-Chloro-6-methyl-4-pyridyl)-2-(3-cyanophenyl)pyrazolo[1,5-a]pyrimidin-5-yl]-3-[(3R)-pyrrolidin-3-yl]urea trifluoroacetate], the Ki [1] was 4.6 nM, the Ki [2] was 5 nM and the Ki [3] was > 1000 nM. The Ki [4] was 151 nM.
For Cc1cc(-c2c(-c3cccc(C#N)c3)nn3ccc(NC(=O)NCC(C)(C)N)nc23)cc(Cl)n1 [Example 31.4, 1-(2-Amino-2-methyl-propyl)-3-[3-(2-chloro-6-methyl-4-pyridyl)-2-(3-cyanophenyl)pyrazolo[1,5-a]pyrimidin-5-yl]urea trifluoroacetate], the Ki [1] was 9.8 nM, the Ki [2] was 13 nM and the Ki [3] was > 1000 nM. For the same molecule, the Ki [4] was 112 nM.
For Cc1cc(-c2c(-c3cccc(C#N)c3)nn3ccc(N/C(N)=N\C#N)nc23)cc(Cl)n1 [Example 32, 1-[3-(2-Chloro-6-methyl-4-pyridyl)-2-(3-cyanophenyl)pyrazolo[1,5-a]pyrimidin-5-yl]-2-cyano-guanidine], the Ki [1] was 17.4 nM, the Ki [2] was 53 nM and the Ki [3] was > 1000 nM. The Ki [4] was 800 nM.
In the case of CCn1nccc1-c1c(-c2cccc(C#N)c2)nn2ccc(NCC(C)(C)O)nc12 [Example 33, 3-[3-(2-Ethylpyrazol-3-yl)-5-[(2-hydroxy-2-methyl-propyl)amino]pyrazolo[1,5-a]pyrimidin-2-yl]benzonitrile], the Ki [1] is reported as 13.1 nM, the Ki [2] is reported as 28 nM and the Ki [3] is reported as > 1000 nM. For the same molecule, the Ki [4] was 118 nM.
With CCn1nccc1-c1c(-c2cccc(C#N)c2)nn2ccc(N3CCN(C)C(CO)C3)nc12 (stereo not shown) [Example 33.1] the Ki [1] was 14.9 nM, the Ki [2] was 62 nM and the Ki [3] was > 1000 nM. The Ki [4] was 184 nM.
CCn1nccc1-c1c(-c2cccc(C#N)c2)nn2ccc(N3CC4CCC(C3)O4)nc12 [Example 33.2] was tested, and the Ki [1] was 15.2 nM, the Ki [2] was 159 nM and the Ki [3] was > 1000 nM. It also gave a Ki [4] of 126 nM.
CCn1nccc1-c1c(-c2cccc(C#N)c2)nn2ccc(N3CC4CCC(C3)N4C)nc12 [Example 33.3] was tested, and the Ki [1] was 28.6 nM, the Ki [2] was 710 nM and the Ki [3] was > 1000 nM. The Ki [4] was 67 nM.
In the case of CCn1nccc1-c1c(-c2cccc(C#N)c2)nn2ccc(N3CCN(S(C)(=O)=O)CC3)nc12 [Example 33.4], the Ki [1] is reported as 48.6 nM, the Ki [2] is reported as 120 nM and the Ki [3] is reported as > 1000 nM. For the same molecule, the Ki [4] was 254 nM.
CCn1nccc1-c1c(-c2cccc(C#N)c2)nn2ccc(NCc3nnc[nH]3)nc12 [Example 33.5] was tested, and the Ki [1] was 91.9 nM, the Ki [2] was 17 nM and the Ki [3] was > 1000 nM. It also gave a Ki [4] of 124 nM.
In the case of CCn1nccc1-c1c(-c2cccc(C#N)c2)nn2ccc(N3CCNCC3)nc12 [Example 33.6], the Ki [1] is reported as 134 nM, the Ki [2] is reported as 61 nM and the Ki [3] is reported as > 1000 nM. The Ki [4] was 898 nM.
In the case of CCn1nccc1-c1c(-c2cccc(C#N)c2)nn2ccc(N3CCS(=N)(=O)CC3)nc12 [Example 33.7], the Ki [1] is reported as 440 nM, the Ki [2] is reported as 416 nM and the Ki [3] is reported as > 1000 nM. For the same molecule, the Ki [4] was 1800 nM.
CC(C)(C)OC(=O)N1CCC[C@H]1CNc1ccn2nc(-c3ccco3)c(C#N)c2n1 [Example 37.4] showed a Ki [1] of 29.8 nM, a Ki [2] of 1750 nM and a Ki [3] of 771 nM. For the same molecule, the Ki [4] was 38 nM.
With CC(C)(C)OC(=O)N1CCO[C@H](CNc2ccn3nc(-c4ccco4)c(C#N)c3n2)C1 [Example 37.5] the Ki [1] was 33.2 nM, the Ki [2] was 1100 nM and the Ki [3] was 1740 nM. For the same molecule, the Ki [4] was 133 nM.
For N#Cc1c(-c2ccco2)nn2ccc(NCC3CCN(Cc4ccccc4)CC3)nc12 [Example 37.9], the Ki [1] was 69.5 nM, the Ki [2] was 36 nM and the Ki [3] was > 1000 nM. The Ki [4] was 398 nM.
In the case of C[C@@H]1CN(c2ccn3nc(-c4ccco4)c(C#N)c3n2)CCN1C(=O)OC(C)(C)C [Example 37.10, tert-butyl (2R)-4-[3-cyano-2-(2-furyl)pyrazolo[1,5-a]pyrimidin-5-yl]-2-methyl-piperazine-1-carboxylate], the Ki [1] is reported as 76 nM, the Ki [2] is reported as 5040 nM and the Ki [3] is reported as 2880 nM. It also gave a Ki [4] of 1760 nM.
N#Cc1c(-c2ccco2)nn2ccc(NCCN3CCN(Cc4ccccc4)CC3)nc12 [Example 37.12] gave a Ki [1] of 310 nM, a Ki [2] of 1320 nM and a Ki [3] of 923 nM. The Ki [4] was 319 nM.
Molecule Cc1cccnc1CNc1ccn2nc(-c3ccco3)c(C(N)=O)c2n1 [Example 38, 2-(2-Furyl)-5-[(3-methyl-2-pyridyl)methylamino]pyrazolo[1,5-a]pyrimidine-3-carboxamide] has a Ki [1] of 10.5 nM, a Ki [2] of 971 nM and a Ki [3] of 1010 nM. The Ki [4] was 158 nM.
With CC(C)(C)OC(=O)N1CC=C(c2ccn3nc(-c4ccco4)c(C#N)c3n2)CC1 [Example 40, tert-butyl 4-[3-cyano-2-(2-furyl)pyrazolo[1,5-a]pyrimidin-5-yl]-3,6-dihydro-2H-pyridine-1-carboxylate] the Ki [1] was 93.6 nM, the Ki [2] was 5500 nM and the Ki [3] was 1770 nM. For the same molecule, the Ki [4] was 1950 nM.
For N#Cc1c(-c2ccco2)nn2ccc(N3CCNCC3)nc12 [Example 41, 2-(2-Furyl)-5-piperazin-1-yl-pyrazolo[1,5-a]pyrimidine-3-carbonitrile], the Ki [1] was 237 nM, the Ki [2] was 2230 nM and the Ki [3] was 5140 nM. For the same molecule, the Ki [4] was 1570 nM.
With N#Cc1c(-c2ccco2)nn2ccc(NC[C@@H]3CNCCO3)nc12 [Example 42, 2-(2-Furyl)-5-[[(2S)-morpholin-2-yl]methylamino]pyrazolo[1,5-a]pyrimidine-3-carbonitrile hydrochloride] the Ki [1] was 345 nM, the Ki [2] was 3060 nM and the Ki [3] was > 1000 nM. The Ki [4] was 313 nM.
For N#Cc1c(-c2ccco2)nn2ccc(NC[C@H]3CNCCO3)nc12 [Example 42.1, 2-(2-Furyl)-5-[[(2R)-morpholin-2-yl]methylamino]pyrazolo[1,5-a]pyrimidine-3-carbonitrile hydrochloride], the Ki [1] was 410 nM, the Ki [2] was 4450 nM and the Ki [3] was > 1000 nM. It also gave a Ki [4] of 680 nM.
In the case of N#Cc1c(-c2ccco2)nn2ccc(N3CCN(Cc4ccccc4)CC3)nc12 [Example 43, 5-(4-Benzylpiperazin-1-yl)-2-(2-furyl)pyrazolo[1,5-a]pyrimidine-3-carbonitrile], the Ki [1] is reported as 16.4 nM, the Ki [2] is reported as 1860 nM and the Ki [3] is reported as > 1000 nM. It also gave a Ki [4] of 278 nM.
N#Cc1c(-c2ccco2)nn2ccc(N)nc12 [Example 49, 5-Amino-2-(2-furyl)pyrazolo[1,5-a]pyrimidine-3-carbonitrile] was tested, and the Ki [1] was 147 nM, the Ki [2] was 2220 nM and the Ki [3] was 3960 nM. The Ki [4] was 172 nM.
Cn1nccc1-c1c(-c2ccco2)nn2ccc(NCc3ccccc3)nc12 [Example 53.1, N-benzyl-2-(2-furyl)-3-(2-methylpyrazol-3-yl)pyrazolo[1,5-a]pyrimidin-5-amine] gave a Ki [1] of 48.6 nM, a Ki [2] of 129 nM and a Ki [3] of 174 nM. For the same molecule, the Ki [4] was 34 nM.
Molecule N#Cc1c(-c2ccco2)nn2ccc(NCCCO)nc12 [Example 55.1, 2-(2-Furyl)-5-(3-hydroxypropylamino)pyrazolo[1,5-a]pyrimidine-3-carbonitrile] has a Ki [1] of 103 nM, a Ki [2] of 1740 nM and a Ki [3] of 8460 nM. The Ki [4] was 355 nM.
